Consider 44 compounds from patent US9493451B2 (Bionomics Limited, priority 2011, dated 2016).

In this assay the target is T1, Kv1.3 (Homo sapiens, UniProt P22001).
T1 construct: expressed in transfected cells; host or cells: CHO (Kv1.3/CHO)
As to the kind of experiment: Electrophysiology: planar patch-clamp of Kv1.3 currents, IC50 from steady state current amplitude. In kind it is cell-based. The following applies: Kv1.3 electrophysiology, results according to Method D1, read-out: IC50 (Kv1.3 ephys steady state). A digest of the protocol:
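Planar patch-clamp, whole-cell, Kv1.3/CHO cells; 500 ms pulses to +40 mV from −80 mV every 30 s; bath pH 7.4, pipette pH 7.2; 0.5% DMSO final. 5-6 cumulative concentrations on 2-3 cells to steady-state block; IC50 from Hill fit of normalised steady-state current at pulse end.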
A general note: In patch-clamp work, channel activity is measured electrically.

As usually defined, the IC50 is the concentration needed to halve the response being measured.

T1 sequence (P22001 whole entry): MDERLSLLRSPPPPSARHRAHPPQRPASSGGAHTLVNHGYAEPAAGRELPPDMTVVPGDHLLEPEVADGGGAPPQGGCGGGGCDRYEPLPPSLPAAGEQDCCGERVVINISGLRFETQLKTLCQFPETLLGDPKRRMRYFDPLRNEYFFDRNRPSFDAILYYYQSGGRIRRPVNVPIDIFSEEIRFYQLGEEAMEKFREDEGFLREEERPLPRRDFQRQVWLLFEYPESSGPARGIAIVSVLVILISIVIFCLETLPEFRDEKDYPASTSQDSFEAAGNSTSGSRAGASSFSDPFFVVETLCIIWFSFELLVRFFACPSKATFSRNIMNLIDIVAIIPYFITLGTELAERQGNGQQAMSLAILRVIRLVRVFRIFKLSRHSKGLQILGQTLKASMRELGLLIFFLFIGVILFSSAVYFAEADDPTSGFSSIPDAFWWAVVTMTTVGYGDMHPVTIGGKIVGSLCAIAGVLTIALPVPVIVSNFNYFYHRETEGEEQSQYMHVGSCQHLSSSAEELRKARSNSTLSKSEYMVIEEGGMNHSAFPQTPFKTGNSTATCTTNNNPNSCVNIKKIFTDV

Consider `O=C(CS(=O)(=O)c1ccccc1)N(Cc1cccnn1)C(c1ccc(OC(F)F)cc1)C1CC1` (centres unmarked) [Example 305], for which the IC50 is 50 to 200 nM. Turning to `CCS(=O)(=O)c1cccc(C(C2CC2)N(Cc2cncc(F)c2)C(=O)C2CC2c2ccc(F)cc2)c1` (centres unmarked) [Example 214], the IC50 was in the range of 50 to 200 nM. On to `O=C(CS(=O)(=O)c1cccc(C(F)(F)F)c1)N(Cc1ccccn1)C(c1ccc(Cl)cc1)C1CC1` (centres unmarked) [Example 294], for which the IC50 lay within 50 to 200 nM. For the compound `CCS(=O)(=O)c1cccc([C@@H](C2CC2)N(Cc2ccc(C(F)(F)F)nc2)C(=O)[C@@H]2C[C@H]2c2ccc(F)cc2)c1` (single isomer, unassigned) [Example 99], the IC50 is under 50 nM. On to `CCS(=O)(=O)c1cccc(C(C2CC2)N(Cc2ncccc2F)C(=O)CS(=O)(=O)c2ccccc2)c1` (centres unmarked) [Example 327], for which the IC50 lay in the range of 1000 to 2000 nM. The same measure for `CCS(=O)(=O)c1cccc(C(C2CC2)N(CC(F)(F)c2ccccn2)C(=O)C2CC2c2ccc(F)cc2)c1` (centres unmarked) [Example 191]: 50 to 200 nM; for `O=C(CS(=O)(=O)c1ccccc1F)N(Cc1ccc(C(F)(F)F)nc1)C(c1ccc(OC(F)F)cc1)C1CC1` (centres unmarked) [Example 299]: 50 to 200 nM.

Regarding `CCS(=O)(=O)c1cccc(C(C2CCN(C)CC2)N(Cc2ccc(F)cn2)C(=O)C2CC2c2ccc(F)cc2)c1` (centres unmarked) [Example 143], the IC50 was 200 to 1000 nM.

`CN1CCC(C(c2ccc(F)cc2F)N(Cc2ccc(F)cn2)C(=O)CS(=O)(=O)c2ccc(F)cc2)CC1` (centres unmarked) [Example 287]: the 50% inhibitory concentration (IC50) lay within 200 to 1000 nM. Turning to `O=C(CS(=O)(=O)c1ccc(F)cc1)N(Cc1ncccc1F)C(c1ccc(OC(F)F)cc1)C1CC1` (centres unmarked) [Example 309], the IC50 is 50 to 200 nM. Turning to `CN1CC(C(c2ccc(OC(F)F)cc2)N(Cc2ncccc2F)C(=O)C2CC2c2ccc(F)cc2)C1` (centres unmarked) [Example 150], the IC50 is 200 to 1000 nM. As to `CN1CCC(C(c2ccc(F)cc2F)N(Cc2ccc(F)cn2)C(=O)C2CC2c2ccc(F)cc2)CC1` (centres unmarked) [Example 144], the IC50 was in the range of 200 to 1000 nM. Consider `CN1CC(C(c2ccc(OC(F)(F)F)cc2)N(Cc2cncc(F)c2)C(=O)C2CC2c2ccc(F)cc2)C1` (centres unmarked) [Example 163], for which the IC50 lay within 200 to 1000 nM. On to `CC(CC(=O)N(Cc1cccc[n+]1[O-])C(c1ccc(Cl)cc1)C1CC1)c1ccc(F)cc1` (centres unmarked) [Example 272], for which the IC50 lay in the range of 50 to 200 nM. Regarding `CCS(=O)(=O)c1cccc(C(C2CC2)N(C(=O)C2CC2c2ccccc2OC(F)(F)F)C2CCOCC2)c1` (centres unmarked) [Example 221], the IC50 fell in the range of 200 to 1000 nM. In the case of `CC(c1ccc2c(c1)[S+]([O-])C(C)(C)O2)N(Cc1ccccn1)C(=O)CCc1cccc(C(F)(F)F)c1` (centres unmarked) [Example 63, N-[1-(2,2-dimethyl-3-oxido-1,3-benzoxathiol-5-yl)ethyl]-N-(pyridin-2-ylmethyl)-3-[3-(trifluoromethyl)phenyl]propanamide], the IC50 lay within 1000 to 2000 nM. As to `O=C(CS(=O)(=O)c1ccc(F)cc1)N(Cc1ccc(C(F)(F)F)nc1)C(c1ccccc1OCC(F)F)C1CC1` (centres unmarked) [Example 330], the half-maximal inhibitory concentration (IC50) fell in the range of 50 to 200 nM. Consider `CC(C)S(=O)(=O)c1cccc(C(C2CC2)N(Cc2ccncn2)C(=O)C2CC2c2ccc(F)cc2)c1` (centres unmarked) [Example 247], for which the IC50 lay in the range of 50 to 200 nM. The value for `CCS(=O)(=O)c1ccc(C(C2CC2)N(Cc2ccc(F)cn2)C(=O)C2CC2c2ccc(F)cc2F)cc1` (centres unmarked) [Example 229] was 50 to 200 nM. `N#Cc1cccc(C(C2CC2)N(Cc2ccc(C(F)(F)F)nc2)C(=O)CS(=O)(=O)c2ccc(F)cc2)c1` (centres unmarked) [Example 332]: the IC50 is 50 to 200 nM. The value for `CCC(c1ccc(S(=O)(=O)CC)cc1)N(Cc1ccc(F)cn1)C(=O)C1CC1c1ccc(F)cc1` (centres unmarked) [Example 116] was 200 to 1000 nM; that for `O=C(CC1(c2ccc(F)cc2)CC1)N(Cc1cccnn1)[C@@H](c1ccc(OC(F)F)cc1)C1CC1` [Example 89, N—{(R)-cyclopropyl[4-(difluoromethoxy)phenyl]methyl}-2-[1-(4-fluorophenyl)cyclopropyl]-N-(pyridazin-3-ylmethyl)acetamide] was under 50 nM; that for `CC(C)S(=O)(=O)c1ccc(C(C2CC2)N(Cc2cccnn2)C(=O)C2CC2c2ccc(F)cc2)cc1` (centres unmarked) [Example 237] was 50 to 200 nM.

For the compound `COc1ccccc1[C@H](C)N(Cc1ccccn1)C(=O)CCc1ccc(F)cc1` [Example 55, 3-(4-fluorophenyl)-N-[(1S)-1-(2-methoxyphenyl)ethyl]-N-(pyridin-2-ylmethyl)propanamide], the IC50 lay in the range of 200 to 1000 nM. Regarding `CCC(c1ccc(S(C)(=O)=O)cc1)N(Cc1ccc(C(F)(F)F)nc1)C(=O)C1CC1c1ccc(F)cc1F` (centres unmarked) [Example 129], the IC50 was in the range of 50 to 200 nM.

Consider `COc1ccc(CN(C(=O)CC(C)S(=O)(=O)c2ccc(F)cc2)C(c2ccc(OC(F)F)cc2)C2CC2)cn1` (centres unmarked) [Example 88, N-{cyclopropyl[4-(difluoromethoxy)phenyl]methyl}-3-[(4-fluorophenyl)sulfonyl]-N-[(6-methoxypyridin-3-yl)methyl]butanamide], for which the IC50 was 50 to 200 nM.

As for `CN1CCC(C(c2cccc(C(F)(F)F)c2)N(Cc2ccc(F)cn2)C(=O)C2CC2c2ccc(F)cc2)CC1` (centres unmarked) [Example 146], the IC50 was 200 to 1000 nM. For `CCS(=O)(=O)c1cccc(C(C2CC2)N(C(=O)C2CC2c2ccc(F)cc2)C2CCC(F)(F)CC2)c1` (centres unmarked) [Example 219], the 50% inhibitory concentration (IC50) is 50 to 200 nM. The same measure for `CC(CC(=O)N(Cc1ccc(C(F)(F)F)nc1)C(c1ccc(OC(F)F)cc1)C1CC1)c1ccccc1S(C)(=O)=O` (centres unmarked) [Example 263]: 50 to 200 nM. As to `CCC(c1ccc(S(=O)(=O)CC)cc1)N(Cc1cccnn1)C(=O)C1CC1c1ccc(F)cc1` (centres unmarked) [Example 118], the IC50 lay within 1000 to 2000 nM. The value for `Cc1ccc(CN(C(=O)CS(=O)(=O)c2ccccc2)C(c2ccc(OC(F)F)cc2)C2CC2)cn1` (centres unmarked) [Example 323] was 200 to 1000 nM; that for `CCC(c1ccc(S(C)(=O)=O)cc1)N(Cc1cccnn1)C(=O)C1CC1c1ccc(F)cc1` (centres unmarked) [Example 125] was 1000 to 2000 nM; that for `CN1CCC(C(c2cccc(C(F)(F)F)c2)N(Cc2cncc(F)c2)C(=O)C2CC2c2ccc(F)cc2)CC1` (centres unmarked) [Example 148] was 200 to 1000 nM. The same measure for `C[C@@H](CC(=O)N(Cc1ccccn1)[C@H](c1ccc(Cl)cc1)C1CC1)S(=O)(=O)c1ccc(F)cc1` (single isomer, unassigned) [Example 76, N-[(4-chlorophenyl)(cyclopropyl)methyl]-3-[(4-fluorophenyl)sulfonyl]-N-(pyridin-2-ylmethyl)butanamide]: under 50 nM; for `O=C([C@H]1C[C@@H]1c1ccc(F)cc1)N(Cc1ccccn1)[C@@H](c1ccc(Cl)cc1)C1CC1` (stereo in doubt) [Example 14, N-[(4-chlorophenyl)(cyclopropyl)methyl]-2-(4-fluorophenyl)-N-(pyridin-2-ylmethyl)cyclopropanecarboxamide]: under 50 nM; for `Cc1ccc(CN(C(=O)CS(=O)(=O)c2ccccc2)C(c2ccc(OC(F)F)cc2)C2CC2)cn1` (centres unmarked) [Example 322]: 50 to 200 nM.

For `O=C(C1CC1c1ccccc1OC(F)(F)F)N(Cc1cccnn1)C(c1ccc(OC(F)F)cc1)C1CC1` (centres unmarked) [Example 188], the IC50 was in the range of 50 to 200 nM.

`CC(c1ccc(S(C)(=O)=O)cc1)N(Cc1cccnn1)C(=O)C1CC1c1ccc(F)cc1` (centres unmarked) [Example 123]: the IC50 is 200 to 1000 nM. The same measure for `CC(C)S(=O)(=O)c1ccc(C(C2CC2)N(Cc2cccnn2)C(=O)C2CC2c2ccc(F)cc2)cc1` (centres unmarked) [Example 236]: 50 to 200 nM.

Consider `CCS(=O)(=O)c1cccc(C(C2CC2)N(Cc2cccnn2)C(=O)C2CC2c2ccc(F)cc2)c1` (centres unmarked) [Example 223], for which the 50% inhibitory concentration (IC50) was 50 to 200 nM. On to `CC(C)C(c1ccc(OC(F)F)cc1)N(Cc1ccc(F)cn1)C(=O)C1CC1c1ccc(F)cc1F` (centres unmarked) [Example 115], for which the IC50 lay within 50 to 200 nM.

In the case of `CCS(=O)(=O)c1cccc(C(C2CC2)N(Cc2ccc(F)cn2)C(=O)C2CC2c2ccc(F)cc2)c1` (centres unmarked) [Example 215], the IC50 is 50 to 200 nM. As to `O=C(C1CC1c1ccc(F)cc1)N(Cc1cccnn1)C(c1ccc(S(=O)(=O)C2CC2)cc1)C1CC1` (centres unmarked) [Example 248], the IC50 fell in the range of 200 to 1000 nM. Turning to `O=C(CS(=O)(=O)c1ccc(F)cc1)N(C1CCC(F)(F)CC1)C(c1ccc(OC(F)F)cc1)C1CC1` (centres unmarked) [Example 315], the IC50 was in the range of 200 to 1000 nM.
